Experiments:
[1] = biological target: T1, Protein deacetylase HDAC6 (Homo sapiens) (UniProt Q9UBN7); assay: Inhibition of HDAC6 derived from human HeLa cell nuclear extract at 100 uM incubated for 2 hrs relative to control; type: cell-free
T1 sequence (whole entry): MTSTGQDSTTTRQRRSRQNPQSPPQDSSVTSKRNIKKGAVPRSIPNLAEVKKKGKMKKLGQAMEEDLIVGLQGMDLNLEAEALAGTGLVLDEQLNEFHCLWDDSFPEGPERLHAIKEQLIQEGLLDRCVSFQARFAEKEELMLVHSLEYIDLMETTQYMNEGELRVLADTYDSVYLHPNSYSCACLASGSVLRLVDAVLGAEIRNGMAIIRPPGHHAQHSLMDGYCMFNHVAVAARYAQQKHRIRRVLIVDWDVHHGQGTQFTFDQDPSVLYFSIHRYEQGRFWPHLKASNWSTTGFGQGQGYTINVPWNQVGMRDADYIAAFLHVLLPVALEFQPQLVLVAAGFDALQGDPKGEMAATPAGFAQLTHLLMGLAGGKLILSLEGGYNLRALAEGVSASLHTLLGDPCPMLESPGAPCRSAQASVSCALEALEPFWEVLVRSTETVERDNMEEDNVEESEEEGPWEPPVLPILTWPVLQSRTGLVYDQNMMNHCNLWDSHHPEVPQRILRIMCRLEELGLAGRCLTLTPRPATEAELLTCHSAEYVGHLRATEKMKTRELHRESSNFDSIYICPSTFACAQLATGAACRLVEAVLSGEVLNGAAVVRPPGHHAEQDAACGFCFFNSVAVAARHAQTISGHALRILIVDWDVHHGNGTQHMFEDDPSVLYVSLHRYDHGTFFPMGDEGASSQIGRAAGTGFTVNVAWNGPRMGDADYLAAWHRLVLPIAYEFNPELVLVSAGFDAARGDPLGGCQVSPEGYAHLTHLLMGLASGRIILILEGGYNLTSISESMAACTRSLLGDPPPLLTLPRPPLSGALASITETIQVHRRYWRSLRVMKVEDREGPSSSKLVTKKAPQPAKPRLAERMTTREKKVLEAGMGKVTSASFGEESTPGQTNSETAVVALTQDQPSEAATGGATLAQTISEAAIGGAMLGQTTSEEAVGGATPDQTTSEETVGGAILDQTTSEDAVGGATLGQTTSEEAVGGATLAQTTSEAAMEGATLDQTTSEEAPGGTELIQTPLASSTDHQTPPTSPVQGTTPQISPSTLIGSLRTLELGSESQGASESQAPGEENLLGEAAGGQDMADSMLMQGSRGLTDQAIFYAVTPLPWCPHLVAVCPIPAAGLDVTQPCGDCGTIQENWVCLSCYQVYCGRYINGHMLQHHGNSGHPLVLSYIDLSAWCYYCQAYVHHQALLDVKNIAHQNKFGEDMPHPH

[2] = biological target: T2, Histone deacetylase 1 (Homo sapiens, UniProt Q13547); assay: Inhibition of HDAC1 derived from human HeLa cell nuclear extract at 100 uM incubated for 2 hrs relative to control; type: cell-free
T2 sequence (Q13547 whole entry): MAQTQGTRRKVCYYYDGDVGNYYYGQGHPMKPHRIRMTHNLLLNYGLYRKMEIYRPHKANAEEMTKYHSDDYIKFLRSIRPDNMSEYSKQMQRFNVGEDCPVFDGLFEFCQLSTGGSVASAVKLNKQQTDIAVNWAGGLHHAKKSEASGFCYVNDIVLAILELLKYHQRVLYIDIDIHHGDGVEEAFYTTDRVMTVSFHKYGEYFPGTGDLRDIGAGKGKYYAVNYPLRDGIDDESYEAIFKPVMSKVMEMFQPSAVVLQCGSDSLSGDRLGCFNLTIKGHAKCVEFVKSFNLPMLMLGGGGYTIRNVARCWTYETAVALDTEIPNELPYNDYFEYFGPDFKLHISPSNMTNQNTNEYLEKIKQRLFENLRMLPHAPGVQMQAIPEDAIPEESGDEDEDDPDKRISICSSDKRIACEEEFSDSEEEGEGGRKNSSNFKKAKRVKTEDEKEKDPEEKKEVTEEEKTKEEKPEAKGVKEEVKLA

[3] = biological target: T3, Histone deacetylase 2 (Homo sapiens, UniProt Q92769); assay: Inhibition of human HDAC2 at 100 uM relative to control
T3 sequence (Q92769 whole entry): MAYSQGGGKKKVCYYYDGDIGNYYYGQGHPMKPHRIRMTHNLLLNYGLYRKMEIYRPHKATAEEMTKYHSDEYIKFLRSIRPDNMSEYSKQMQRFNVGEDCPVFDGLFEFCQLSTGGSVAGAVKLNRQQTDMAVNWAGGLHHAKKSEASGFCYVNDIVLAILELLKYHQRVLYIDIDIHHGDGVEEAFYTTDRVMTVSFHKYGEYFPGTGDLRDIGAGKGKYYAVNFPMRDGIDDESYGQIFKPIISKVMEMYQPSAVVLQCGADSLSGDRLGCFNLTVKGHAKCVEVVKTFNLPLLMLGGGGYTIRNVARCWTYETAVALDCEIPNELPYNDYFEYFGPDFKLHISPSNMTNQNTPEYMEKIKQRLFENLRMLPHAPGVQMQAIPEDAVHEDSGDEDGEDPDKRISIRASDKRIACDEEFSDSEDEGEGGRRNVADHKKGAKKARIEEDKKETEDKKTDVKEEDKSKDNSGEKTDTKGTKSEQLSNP

[4] = biological target: Histone deacetylase 4 (Homo sapiens) (UniProt P56524); assay: Inhibition of human HDAC4 at 100 uM relative to control
Chain of Histone deacetylase 4 (Homo sapiens) (P56524 whole entry): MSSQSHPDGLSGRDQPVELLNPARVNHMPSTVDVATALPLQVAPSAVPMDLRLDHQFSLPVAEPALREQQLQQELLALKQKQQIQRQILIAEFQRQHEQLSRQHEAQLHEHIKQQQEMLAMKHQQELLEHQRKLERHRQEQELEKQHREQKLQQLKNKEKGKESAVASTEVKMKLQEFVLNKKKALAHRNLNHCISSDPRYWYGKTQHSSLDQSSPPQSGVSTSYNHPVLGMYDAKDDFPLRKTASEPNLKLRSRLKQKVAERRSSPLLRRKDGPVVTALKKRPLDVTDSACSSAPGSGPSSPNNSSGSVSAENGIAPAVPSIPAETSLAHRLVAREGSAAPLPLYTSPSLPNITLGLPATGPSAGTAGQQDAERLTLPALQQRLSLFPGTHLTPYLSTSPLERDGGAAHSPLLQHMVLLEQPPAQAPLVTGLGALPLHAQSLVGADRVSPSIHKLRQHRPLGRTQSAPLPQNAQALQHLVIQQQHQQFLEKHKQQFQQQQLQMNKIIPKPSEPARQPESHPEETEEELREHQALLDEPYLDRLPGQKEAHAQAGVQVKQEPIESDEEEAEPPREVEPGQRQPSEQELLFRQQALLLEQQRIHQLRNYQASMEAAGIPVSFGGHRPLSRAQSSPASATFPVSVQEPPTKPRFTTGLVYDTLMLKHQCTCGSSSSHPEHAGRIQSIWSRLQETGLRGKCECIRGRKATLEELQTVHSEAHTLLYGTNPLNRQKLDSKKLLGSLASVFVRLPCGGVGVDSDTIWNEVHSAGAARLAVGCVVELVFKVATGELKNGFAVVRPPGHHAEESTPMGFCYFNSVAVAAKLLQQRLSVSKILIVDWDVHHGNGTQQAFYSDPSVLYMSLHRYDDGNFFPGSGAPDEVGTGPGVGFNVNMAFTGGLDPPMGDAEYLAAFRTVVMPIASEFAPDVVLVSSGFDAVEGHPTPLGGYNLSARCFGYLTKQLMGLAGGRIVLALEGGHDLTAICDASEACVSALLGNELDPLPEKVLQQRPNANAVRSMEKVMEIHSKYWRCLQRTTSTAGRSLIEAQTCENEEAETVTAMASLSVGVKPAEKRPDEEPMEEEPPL

[5] = Inhibition of human recombinant HDAC3/NcoR2 using RHKKAc as substrate
[6] = biological target: T3, Histone deacetylase 2
[7] = biological target: T4, Protein deacetylase HDAC6 (Homo sapiens, UniProt Q9UBN7); assay: Inhibition of HDAC6 (unknown origin)
T4 sequence (Q9UBN7 whole entry): T1 sequence (whole entry)

[8] = biological target: Histone deacetylase 3 (Homo sapiens, UniProt O15379); assay: Inhibition of HDAC3 (unknown origin)
Chain of Histone deacetylase 3 (O15379 whole entry): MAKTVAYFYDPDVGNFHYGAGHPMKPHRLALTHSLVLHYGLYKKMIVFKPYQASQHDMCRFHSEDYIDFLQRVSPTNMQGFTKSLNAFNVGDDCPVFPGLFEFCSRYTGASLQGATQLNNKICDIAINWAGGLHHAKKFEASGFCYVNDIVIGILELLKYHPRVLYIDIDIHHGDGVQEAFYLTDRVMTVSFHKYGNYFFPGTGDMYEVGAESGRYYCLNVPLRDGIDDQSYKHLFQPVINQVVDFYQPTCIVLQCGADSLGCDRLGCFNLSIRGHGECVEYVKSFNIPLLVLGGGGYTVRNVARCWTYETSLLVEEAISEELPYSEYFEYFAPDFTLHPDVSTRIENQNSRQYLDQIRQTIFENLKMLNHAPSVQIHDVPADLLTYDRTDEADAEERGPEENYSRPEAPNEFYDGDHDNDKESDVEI

[9] = biological target: T5, Histone deacetylase 8 (Homo sapiens, UniProt Q9BY41); assay: Inhibition of HDAC8 (unknown origin)
T5 sequence (Q9BY41 whole entry): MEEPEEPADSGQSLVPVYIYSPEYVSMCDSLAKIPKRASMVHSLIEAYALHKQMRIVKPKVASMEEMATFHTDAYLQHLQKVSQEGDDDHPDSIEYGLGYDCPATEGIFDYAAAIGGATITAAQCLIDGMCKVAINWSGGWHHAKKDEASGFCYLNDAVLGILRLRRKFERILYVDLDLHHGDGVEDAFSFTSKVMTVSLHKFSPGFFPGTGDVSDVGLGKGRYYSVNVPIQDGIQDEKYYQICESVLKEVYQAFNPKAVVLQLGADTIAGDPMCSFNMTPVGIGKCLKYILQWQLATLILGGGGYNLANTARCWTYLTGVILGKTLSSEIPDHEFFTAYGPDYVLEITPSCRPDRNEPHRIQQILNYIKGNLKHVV

[10] = biological target: T2, Histone deacetylase 1; assay: Inhibition of HDAC1 (unknown origin)
[11] = biological target: T6, Histone deacetylase 7 (Homo sapiens, UniProt Q8WUI4); assay: Inhibition of HDAC7 (unknown origin)
T6 sequence (Q8WUI4 whole entry): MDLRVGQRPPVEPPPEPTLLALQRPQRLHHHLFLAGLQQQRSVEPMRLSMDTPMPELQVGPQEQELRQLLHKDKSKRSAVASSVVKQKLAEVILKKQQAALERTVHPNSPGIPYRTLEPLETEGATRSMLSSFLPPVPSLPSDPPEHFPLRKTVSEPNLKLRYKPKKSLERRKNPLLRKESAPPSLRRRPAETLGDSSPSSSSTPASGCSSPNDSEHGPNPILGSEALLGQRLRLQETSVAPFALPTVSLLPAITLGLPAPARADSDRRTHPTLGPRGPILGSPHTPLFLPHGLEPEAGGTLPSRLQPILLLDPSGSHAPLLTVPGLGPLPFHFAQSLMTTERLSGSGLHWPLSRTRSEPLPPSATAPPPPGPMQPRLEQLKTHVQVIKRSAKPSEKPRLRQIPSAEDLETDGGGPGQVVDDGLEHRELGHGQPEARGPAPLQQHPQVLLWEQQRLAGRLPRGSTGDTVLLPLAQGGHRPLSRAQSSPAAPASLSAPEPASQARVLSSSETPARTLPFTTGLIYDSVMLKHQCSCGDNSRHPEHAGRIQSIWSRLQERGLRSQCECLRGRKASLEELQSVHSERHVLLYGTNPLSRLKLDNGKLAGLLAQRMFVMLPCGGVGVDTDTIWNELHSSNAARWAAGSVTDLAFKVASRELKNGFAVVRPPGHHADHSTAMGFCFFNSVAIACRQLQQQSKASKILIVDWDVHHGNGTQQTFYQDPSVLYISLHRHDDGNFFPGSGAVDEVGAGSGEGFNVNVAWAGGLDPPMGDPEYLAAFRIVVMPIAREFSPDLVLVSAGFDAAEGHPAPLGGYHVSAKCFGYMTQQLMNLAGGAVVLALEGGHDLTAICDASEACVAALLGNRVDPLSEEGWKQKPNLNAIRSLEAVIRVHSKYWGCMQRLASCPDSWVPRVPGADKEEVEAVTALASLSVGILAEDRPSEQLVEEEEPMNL

[12] = biological target: T2, Histone deacetylase 1; assay: Inhibition of human recombinant HDAC1 using fluorogenic substrate

## Oc1ccc(/C=C/c2cc(O)cc(O)c2)cc1
[1]
  inhibition: 32%
[2]
  inhibition: 39%
[3]
  inhibition: 21%
[4]
  inhibition: 23%

## CN1CCc2c(c3ccccc3n2Cc2ccc(C(=O)NO)cc2)C1 [TUBASTATIN A]
[5]
  IC50: > 30 µM

## CC(C)(C)OC(=O)Nc1cccc(C(=O)/C=C/c2ccc(/C=C/C(=O)NO)cc2)c1
[6]
  IC50: 2.1 µM
[7]
  IC50: 0.011 µM
[8]
  IC50: 10.8 µM
[9]
  IC50: 1.2 µM

## CCCC(=O)O [BUTYRIC ACID]
[10]
  IC50: 300 µM
[6]
  IC50: 400 µM
[11]
  IC50: 300 µM

## O=C(O)CCCc1ccccc1 [SODIUM PHENYLBUTYRATE]
[12]
  IC50: 162 µM

## C[C@@H]1CN(Cc2ccc(C(=O)NO)cc2)C[C@H](C)N1Cc1cccc(Cl)c1
[10]
  IC50: 11.4 µM
[7]
  IC50: 0.041 µM

Source: ChEMBL document CHEMBL5136998, “Chasing a Breath of Fresh Air in Cystic Fibrosis (CF): Therapeutic Potential of Selective HDAC6 Inhibitors to Tackle Multiple Pathways in CF Pathophysiology” (J Med Chem, 2022)
